Assay results as given in ChEMBL document CHEMBL1909046, “DrugMatrix in vitro pharmacology data”.

What was measured:
[1] = biological target: T1, Angiotensin-converting enzyme (Oryctolagus cuniculus, UniProt P12822); type: tissue-based, Lung;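 also: enzymatic inhibition of angiotensin-converting enzyme measured with FAPGG as the substrate; in other assays of this panel Not Active means under 50% inhibition at 10 µM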
T1 sequence (P12822 whole entry): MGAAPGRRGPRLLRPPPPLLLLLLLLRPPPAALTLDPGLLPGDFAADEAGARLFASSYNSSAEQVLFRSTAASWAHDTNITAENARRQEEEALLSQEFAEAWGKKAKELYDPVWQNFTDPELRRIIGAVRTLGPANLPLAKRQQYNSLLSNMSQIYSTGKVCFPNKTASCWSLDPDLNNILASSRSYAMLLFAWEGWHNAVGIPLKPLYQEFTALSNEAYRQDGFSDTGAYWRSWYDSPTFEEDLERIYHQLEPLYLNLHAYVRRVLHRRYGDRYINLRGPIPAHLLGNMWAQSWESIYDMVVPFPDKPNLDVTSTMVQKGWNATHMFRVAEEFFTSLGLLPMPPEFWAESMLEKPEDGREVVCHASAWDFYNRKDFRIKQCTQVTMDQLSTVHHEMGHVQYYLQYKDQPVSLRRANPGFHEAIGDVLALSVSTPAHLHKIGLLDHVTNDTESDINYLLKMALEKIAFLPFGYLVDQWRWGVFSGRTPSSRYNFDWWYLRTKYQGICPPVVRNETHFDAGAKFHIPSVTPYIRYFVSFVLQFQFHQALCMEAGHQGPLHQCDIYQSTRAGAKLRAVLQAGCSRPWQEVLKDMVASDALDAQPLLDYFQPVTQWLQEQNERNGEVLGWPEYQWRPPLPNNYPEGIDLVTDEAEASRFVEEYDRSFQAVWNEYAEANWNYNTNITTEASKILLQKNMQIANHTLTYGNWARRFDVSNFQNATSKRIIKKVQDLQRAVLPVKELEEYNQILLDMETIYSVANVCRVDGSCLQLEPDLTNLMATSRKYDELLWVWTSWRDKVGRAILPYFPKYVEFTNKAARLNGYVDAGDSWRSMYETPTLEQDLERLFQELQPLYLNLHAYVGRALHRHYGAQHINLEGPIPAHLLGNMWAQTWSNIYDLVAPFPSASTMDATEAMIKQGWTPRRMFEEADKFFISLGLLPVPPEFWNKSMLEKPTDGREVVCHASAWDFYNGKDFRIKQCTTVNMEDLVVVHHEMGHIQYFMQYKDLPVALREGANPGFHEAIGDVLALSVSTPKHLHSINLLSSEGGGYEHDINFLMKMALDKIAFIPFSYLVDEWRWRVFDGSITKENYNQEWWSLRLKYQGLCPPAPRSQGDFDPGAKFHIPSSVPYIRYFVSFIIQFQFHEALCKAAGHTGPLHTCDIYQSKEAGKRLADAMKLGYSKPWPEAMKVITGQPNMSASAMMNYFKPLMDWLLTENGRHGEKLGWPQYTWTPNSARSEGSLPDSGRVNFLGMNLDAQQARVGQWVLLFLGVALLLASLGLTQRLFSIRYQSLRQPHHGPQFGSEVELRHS

[2] = biological target: Beta-3 adrenergic receptor (Homo sapiens, UniProt P13945); experiment: DRUGMATRIX: Adrenergic beta3 radioligand binding (ligand: [125I] Cyanopindolol); type: cell membranes, HEK293, Membrane; conditions: Not Active = under 50% inhibition at 10 µM
[3] = biological target: T2, Thromboxane-A synthase (Homo sapiens, UniProt P24557); experiment: biochemical; type: tissue-based, Platelet;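 also: enzyme inhibition assay with PGH2 supplied as substrate; in other assays of this panel Not Active means under 50% inhibition at 10 µM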
T2 sequence (P24557 whole entry): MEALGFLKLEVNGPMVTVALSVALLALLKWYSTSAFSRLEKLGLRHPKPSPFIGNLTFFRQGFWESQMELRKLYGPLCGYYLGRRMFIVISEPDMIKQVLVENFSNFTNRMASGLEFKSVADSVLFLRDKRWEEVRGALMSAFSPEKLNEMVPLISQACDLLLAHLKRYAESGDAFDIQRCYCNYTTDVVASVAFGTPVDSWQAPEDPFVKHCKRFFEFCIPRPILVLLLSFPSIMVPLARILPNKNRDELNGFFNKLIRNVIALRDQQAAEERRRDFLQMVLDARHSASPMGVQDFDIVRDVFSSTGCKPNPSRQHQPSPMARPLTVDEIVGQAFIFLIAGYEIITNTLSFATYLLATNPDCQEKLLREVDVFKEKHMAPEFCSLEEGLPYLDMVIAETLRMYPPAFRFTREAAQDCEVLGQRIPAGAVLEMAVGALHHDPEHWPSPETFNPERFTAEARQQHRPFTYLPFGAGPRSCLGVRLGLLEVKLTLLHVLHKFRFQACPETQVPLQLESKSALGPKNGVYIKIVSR

[4] = biological target: Voltage-gated inwardly rectifying potassium channel KCNH2 (Homo sapiens, UniProt Q12809); conditions: hek293; also: in other assays of this panel Not Active means under 50% inhibition at 10 µM
[5] = biological target: Protein phosphatase 3 catalytic subunit alpha (Homo sapiens, UniProt Q08209); parameters: species or system Escherichia coli;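 also: inhibition of calcineurin (PP2B) enzyme activity, measured with DiFMUP as the substrate; in other assays of this panel Not Active means under 50% inhibition at 10 µM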
[6] = biological target: T3, Substance-K receptor (Homo sapiens, UniProt P21452); type: cell membranes, CHO, Membrane; also: in other assays of this panel Not Active means under 50% inhibition at 10 µM
T3 sequence (P21452 whole entry): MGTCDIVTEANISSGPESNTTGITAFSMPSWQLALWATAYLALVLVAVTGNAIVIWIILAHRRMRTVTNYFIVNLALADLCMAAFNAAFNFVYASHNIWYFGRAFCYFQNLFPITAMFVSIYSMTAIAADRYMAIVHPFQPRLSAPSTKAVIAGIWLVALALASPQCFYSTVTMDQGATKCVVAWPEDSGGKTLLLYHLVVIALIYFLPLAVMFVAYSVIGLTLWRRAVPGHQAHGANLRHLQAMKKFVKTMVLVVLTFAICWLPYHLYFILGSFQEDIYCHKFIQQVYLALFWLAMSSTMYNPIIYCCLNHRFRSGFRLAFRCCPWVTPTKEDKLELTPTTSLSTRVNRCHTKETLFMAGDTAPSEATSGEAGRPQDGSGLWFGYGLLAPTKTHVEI

Sequence of Beta-3 adrenergic receptor (P13945 whole entry): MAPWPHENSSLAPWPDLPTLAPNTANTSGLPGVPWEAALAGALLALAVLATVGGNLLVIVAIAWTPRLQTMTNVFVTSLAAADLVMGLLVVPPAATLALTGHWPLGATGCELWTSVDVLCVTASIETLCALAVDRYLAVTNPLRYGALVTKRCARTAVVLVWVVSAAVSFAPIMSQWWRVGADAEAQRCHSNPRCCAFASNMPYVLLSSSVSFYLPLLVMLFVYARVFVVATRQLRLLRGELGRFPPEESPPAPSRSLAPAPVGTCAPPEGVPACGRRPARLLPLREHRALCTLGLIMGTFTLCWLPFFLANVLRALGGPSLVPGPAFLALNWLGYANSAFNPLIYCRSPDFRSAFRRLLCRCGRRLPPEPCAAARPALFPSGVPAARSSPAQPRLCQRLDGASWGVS
Sequence of Voltage-gated inwardly rectifying potassium channel KCNH2 (Q12809 whole entry): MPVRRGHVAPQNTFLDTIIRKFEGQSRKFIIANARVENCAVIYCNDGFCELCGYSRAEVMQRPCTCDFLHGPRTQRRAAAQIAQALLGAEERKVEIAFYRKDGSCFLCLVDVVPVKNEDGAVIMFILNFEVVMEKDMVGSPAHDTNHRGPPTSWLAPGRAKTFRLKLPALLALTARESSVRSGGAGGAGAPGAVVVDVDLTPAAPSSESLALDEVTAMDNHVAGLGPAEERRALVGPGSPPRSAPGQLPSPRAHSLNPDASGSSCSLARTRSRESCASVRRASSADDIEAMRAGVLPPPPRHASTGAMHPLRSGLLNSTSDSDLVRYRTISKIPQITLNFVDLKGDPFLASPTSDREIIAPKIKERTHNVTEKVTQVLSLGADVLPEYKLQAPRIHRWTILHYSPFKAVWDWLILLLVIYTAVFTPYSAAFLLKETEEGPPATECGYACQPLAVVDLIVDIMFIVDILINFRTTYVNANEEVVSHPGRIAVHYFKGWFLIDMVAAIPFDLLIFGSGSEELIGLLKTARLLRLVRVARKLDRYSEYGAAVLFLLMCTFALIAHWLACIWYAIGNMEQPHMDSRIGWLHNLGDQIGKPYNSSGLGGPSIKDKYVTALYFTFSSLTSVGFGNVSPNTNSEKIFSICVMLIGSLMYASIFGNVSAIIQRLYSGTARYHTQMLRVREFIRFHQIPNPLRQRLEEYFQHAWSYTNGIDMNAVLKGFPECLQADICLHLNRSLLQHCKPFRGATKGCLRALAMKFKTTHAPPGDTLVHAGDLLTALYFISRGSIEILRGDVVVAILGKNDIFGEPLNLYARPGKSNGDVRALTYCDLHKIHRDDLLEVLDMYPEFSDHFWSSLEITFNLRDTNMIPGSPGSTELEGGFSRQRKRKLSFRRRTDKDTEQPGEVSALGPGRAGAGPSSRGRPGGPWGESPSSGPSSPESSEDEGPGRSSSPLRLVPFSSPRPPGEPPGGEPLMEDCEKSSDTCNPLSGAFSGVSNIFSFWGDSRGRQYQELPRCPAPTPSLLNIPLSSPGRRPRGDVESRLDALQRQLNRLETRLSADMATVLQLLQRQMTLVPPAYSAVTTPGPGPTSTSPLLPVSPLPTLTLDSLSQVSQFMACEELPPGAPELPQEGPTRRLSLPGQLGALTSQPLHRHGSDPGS

| SMILES | IC50 [1] | IC50 ([2]; read-out: IC50) [µM] | Ki ([2]; read-out: Ki) [µM] | IC50 ([3]; read-out: IC50) [µM] | IC50 [4] | Ki [4] | IC50 [5] | IC50 ([6]; read-out: IC50) [µM] | Ki ([6]; read-out: Ki) [µM] | IC50 ([2]; hek293) | IC50 ([3]; platelet) | IC50 ([6]; cho) |
| --- | --- | --- | --- | --- | --- | --- | --- | --- | --- | --- | --- | --- |
| Clc1ccc(COC(Cn2ccnc2)c2ccc(Cl)cc2Cl)c(Cl)c1 (stereo not given) [MICONAZOLE] | Not Active | 5.48 | 4.11 | 0.263 | Not Active | Not Active | Not Active | 4.84 | 1.61 | – | – | – |
| CC1CCC(NC(=O)N(CCCl)N=O)CC1 (stereo not given) [SEMUSTINE] | Not Active | – | – | – | Not Active | Not Active | Not Active | – | – | Not Active | Not Active | Not Active |
| O=C1C[C@@H]2OCC=C3CN4CC[C@]56c7ccccc7N1[C@H]5[C@H]2[C@H]3C[C@H]46 [STRYCHNINE] | Not Active | – | – | – | Not Active | Not Active | Not Active | – | – | Not Active | Not Active | Not Active |
| C[S+]([O-])c1ccc(-c2nc(-c3ccncc3)c(-c3ccc(F)cc3)[nH]2)cc1 (stereo not given) [SB-203580] | Not Active | – | – | – | – | – | Not Active | – | – | Not Active | – | Not Active |
| CC(=N)S [THIOACETAMIDE] | Not Active | – | – | – | Not Active | Not Active | Not Active | – | – | Not Active | Not Active | Not Active |
| COC(=O)[C@H]1[C@H]2C[C@@H]3c4[nH]c5cc(OC)ccc5c4CCN3C[C@H]2C[C@@H](OC(=O)c2cc(OC)c(OC)c(OC)c2)[C@@H]1OC [RESERPINE] | Not Active | – | – | – | Not Active | Not Active | Not Active | – | – | Not Active | Not Active | Not Active |
| O=c1[nH]c(=O)n(C2CCCO2)cc1F (stereo not given) [TEGAFUR] | Not Active | – | – | – | Not Active | Not Active | Not Active | – | – | Not Active | Not Active | Not Active |
| C[N+](C)(C)CCOC(=O)CCC(=O)OCC[N+](C)(C)C.[Cl-].[Cl-] [SUCCINYLCHOLINE CHLORIDE] | Not Active | – | – | – | Not Active | Not Active | Not Active | – | – | Not Active | Not Active | Not Active |
| CCCCC(=O)N(Cc1ccc(-c2ccccc2-c2nnn[nH]2)cc1)[C@H](C(=O)O)C(C)C | Not Active | – | – | – | Not Active | Not Active | Not Active | – | – | Not Active | Not Active | Not Active |
| CN1CCN(C2=Nc3cc(Cl)ccc3Nc3ccccc32)CC1 [CLOZAPINE] | Not Active | – | – | – | – | – | Not Active | – | – | Not Active | Not Active | Not Active |
| Oc1ccc2c3c1O[C@H]1[C@@H](O)CC[C@@]4(O)[C@@H](C2)N(CC2CCC2)CC[C@]314 [NALBUPHINE] | Not Active | – | – | – | Not Active | Not Active | Not Active | – | – | Not Active | Not Active | Not Active |
| CN(C)C(=O)C(CCN1CCC(O)(c2ccc(Cl)cc2)CC1)(c1ccccc1)c1ccccc1 [LOPERAMIDE] | Not Active | – | – | – | Not Active | Not Active | Not Active | – | – | – | Not Active | Not Active |
